Reference: the NIST ThermoML archive (doi:10.1016/j.fluid.2016.02.037)
Where “and” joins values, the source holds several entries; their conditions need not be identical. Identical values can stand only once.

Assay: Molar enthalpy of transition or fusion
Settings: Crystal; DSC

SMILES: Cn1nnnc1SCC1=C(C(=O)[O-])N2C(=O)[C@@H](NC(=O)[C@H](OC=O)c3ccccc3)[C@H]2SC1.[Na+] [cefamandole nafate]
- Molar enthalpy of transition or fusion: 4.51 kcal/mol and 3.33 kcal/mol
